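All cell lines were grown in 96-well plates and treated with compound for 48 hours. The concentration for full growth arrest is given as TGI.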

The values that follow come from PubChem BioAssay (NCI).

Test systems include T-47D breast; MDA-MB-231 breast; NCI-H460 lung; OVCAR-8 ovarian; MOLT-4 leukemia; TK-10 renal; UACC-257 melanoma; A498 renal; NCI-H522 lung; HCT-15 colon.
Common to all, as to test: NCI anticancer screen, dose series, 48 h

In the case of `Cc1[nH]c(=O)nc2nc3ccc(Cl)cc3c(NC(C)(CO)CO)c12`, the TGI is more than 100 µM with T-47D breast; more than 81 µM in the test on MDA-MB-231 breast; more than 100 µM in the test with NCI-H460 lung; more than 100 µM in the test with OVCAR-8 ovarian; more than 100 µM in the test on MOLT-4 leukemia; more than 100 µM with TK-10 renal. Moreover, the TGI with UACC-257 melanoma is more than 100 µM; in the test with A498 renal, more than 100 µM; with NCI-H522 lung, more than 67.9 µM; in the test on HCT-15 colon it was more than 100 µM.
For `CCOC(=O)C1=CC(C)(C(=O)OCC)Nc2c(nc(SC)n(C)c2=O)N1` (stereo not given), the TGI with T-47D breast, in the test on MDA-MB-231 breast, in the test with NCI-H460 lung, with OVCAR-8 ovarian, in the test on MOLT-4 leukemia and in the test with TK-10 renal was more than 10 µM throughout. Also, the TGI in the test with UACC-257 melanoma, in the test on A498 renal, with NCI-H522 lung and in the test on HCT-15 colon was more than 10 µM throughout.
As for `COc1cc(/C=c2/c3ccccc3n3c2cc(-c2ccccc2)[n+]3C)cc(OC)c1OC`, the TGI in the test on T-47D breast was 19.3 µM; in the test with MDA-MB-231 breast, 14.8 µM; in the test with NCI-H460 lung, 17.1 µM; in the test on OVCAR-8 ovarian it was 12.9 µM; in the test on MOLT-4 leukemia it was more than 64.9 µM; in the test with TK-10 renal, 17.4 µM. Besides, the TGI in the test on UACC-257 melanoma was 7.68 µM; in the test on A498 renal, more than 58.3 µM; in the test with NCI-H522 lung, 9.6 µM; in the test on HCT-15 colon, 18.5 µM.
Take `Cc1nc2c(Cl)cc(Cl)cc2c(Cl)c1CCCl`: the TGI was 89.7 µM with T-47D breast; more than 100 µM in the test on MDA-MB-231 breast; more than 100 µM in the test on NCI-H460 lung; more than 100 µM with OVCAR-8 ovarian; more than 100 µM in the test with MOLT-4 leukemia; more than 100 µM in the test on TK-10 renal. Also, the TGI with UACC-257 melanoma, with A498 renal, in the test with NCI-H522 lung and in the test with HCT-15 colon was more than 100 µM throughout.
With `NNC(=O)CCC(NS(=O)(=O)c1ccc(Cl)cc1)C(=O)NN` (stereo not given), the TGI with T-47D breast, in the test on MDA-MB-231 breast, with NCI-H460 lung, in the test on OVCAR-8 ovarian, with MOLT-4 leukemia and with TK-10 renal was more than 100 µM each time. Moreover, the TGI in the test on UACC-257 melanoma, in the test with A498 renal, in the test with NCI-H522 lung and in the test with HCT-15 colon was more than 100 µM each time.
`COc1ccc(-c2nnc(CCCCCCCCc3nnc(-c4ccc(OC)cc4)n3N)n2N)cc1`: the TGI was more than 100 µM with T-47D breast; more than 100 µM with MDA-MB-231 breast; more than 100 µM in the test with NCI-H460 lung; more than 31.6 µM in the test with OVCAR-8 ovarian; more than 100 µM in the test with MOLT-4 leukemia; more than 100 µM with TK-10 renal. Besides, the TGI in the test with UACC-257 melanoma, in the test with A498 renal, with NCI-H522 lung and in the test with HCT-15 colon was more than 100 µM in each case.
For the molecule `S=c1nc2sc3c(c2c(Nc2ccc(Br)cc2)[nH]1)CCN(N1CCc2c(sc4nc(=S)[nH]c(Nc5ccc(Br)cc5)c24)C1)C3`, the TGI in the test on T-47D breast, in the test with MDA-MB-231 breast, in the test on NCI-H460 lung, in the test with OVCAR-8 ovarian, in the test on MOLT-4 leukemia and in the test with TK-10 renal was more than 50 µM throughout. The TGI is more than 50 µM in the test on UACC-257 melanoma, 31.3 µM in the test on A498 renal, 44.5 µM with NCI-H522 lung and more than 50 µM with HCT-15 colon.
With `CC(C)(C)OC(=O)N1Cc2cc(O)ccc2C[C@H]1C(=O)O`, the TGI in the test with T-47D breast, with MDA-MB-231 breast, with NCI-H460 lung, with OVCAR-8 ovarian, with MOLT-4 leukemia and in the test on TK-10 renal was more than 100 µM in each case. The TGI with UACC-257 melanoma, with A498 renal, with NCI-H522 lung and in the test on HCT-15 colon was more than 100 µM each time.
As to `COc1cc(O)c2c(=O)c(OC)c(-c3ccc4c(c3)OCO4)oc2c1OC`, the TGI in the test with T-47D breast, with MDA-MB-231 breast, with NCI-H460 lung, in the test with OVCAR-8 ovarian, in the test on MOLT-4 leukemia and in the test on TK-10 renal was more than 50 µM in each case. Moreover, the TGI in the test on UACC-257 melanoma, in the test on A498 renal, in the test on NCI-H522 lung and in the test on HCT-15 colon was more than 50 µM in each case.
Regarding `COC12OC3CC4(C)C(=CC3OC(OC(C)C1O)C2O)CCC1C4CCC2(C)C(c3ccc(=O)oc3)CCC12O` (stereo not given), the TGI was 0.0782 µM with T-47D breast; 0.00792 µM in the test with MDA-MB-231 breast; 0.00224 µM in the test with NCI-H460 lung; 0.00318 µM in the test with OVCAR-8 ovarian; less than 0.001 µM in the test on MOLT-4 leukemia; 0.00216 µM in the test with TK-10 renal. Besides, the TGI with UACC-257 melanoma is 0.0117 µM; in the test with A498 renal it was 0.0144 µM; in the test on NCI-H522 lung it was less than 0.001 µM; in the test with HCT-15 colon, 0.00553 µM.
`NC(=O)C[C@H](NC(=O)C1(NC(=O)[C@H](Cc2ccc(CP(=O)(O)O)cc2)NC(=O)C(=O)O)CCCCC1)C(=O)NCCCc1cccc2ccccc12`: the TGI with T-47D breast, with MDA-MB-231 breast, in the test on NCI-H460 lung, in the test on OVCAR-8 ovarian, with MOLT-4 leukemia and with TK-10 renal was more than 10 µM in each case. The TGI in the test with UACC-257 melanoma, with A498 renal, with NCI-H522 lung and with HCT-15 colon was more than 10 µM in each case.
`Cn1c(N=[N+]=[N-])cc(=O)n(C)c1=O`: the TGI in the test on T-47D breast, in the test on MDA-MB-231 breast, with NCI-H460 lung, in the test on OVCAR-8 ovarian, with MOLT-4 leukemia and with TK-10 renal was more than 100 µM in each case. Besides, the TGI in the test with UACC-257 melanoma, with A498 renal, with NCI-H522 lung and in the test on HCT-15 colon was more than 100 µM throughout.
